According to patent US20150018384A1, “TREATMENT FOR HIGH CHOLESTEROL” (FibroGen, Inc., priority 2012, published 2015):
Entries after “also recorded” stand apart in the source; their conditions may differ.

Assays:
ApoE deficient mice [1] = experiment: High cholesterol mouse model, ApoE deficient mice, 2 weeks; type: in vivo; settings: Compound 60 mg/kg three times a week for two weeks, n=10/group, FIG. 22
Source text: (§1) Ten-week-old male apoE knockout mice (Jackson Laboratories, Bar Harbor, Me.) were fed a normal chow diet (0.02% cholesterol, 13.5% fat by weight; LabDiet). […] After 2 weeks of acclimatization, whole blood was collected for baseline measurement before administration of test reagents. […] The animals were sacrificed at end of study.
ApoE deficient mice as described in Example 10 were used to test the effect of various compounds on cholesterol levels. […] A statin compound (rosuvastatin) was also tested. Blood samples were collected at the end of the study and total cholesterol blood levels were tested. A group of 10 mice was sacrificed at the beginning of the study for a baseline total cholesterol measurement. […] Typically statins show mixed results in this model and are not very effective to reduce cholesterol in mice (Bea et al. 2003 Atherosclerosis 167:187-194).

[2] = system: genes involved in cholesterol biosynthesis in DIO mice liver; experiment: Microarray expression of cholesterol biosynthesis genes in liver of DIO mice; type: in vivo, mouse; settings: 60 mg/kg three times a week, 4 weeks of dosing, relative to vehicle treated mice
Experimental: (§2) A number of PHI compounds were evaluated for their effect on the expression of cholesterol biosynthesis genes in mouse liver. […] Liver tissue was harvested and stored in RNALater (Life Technologies). Total RNA was isolated with Trizol (Life Technologies) and purified with RNEasy96 (Qiagen) according to the manufacturers' protocols. RNA concentration was measured by NanoDrop (Thermo), and quality was assessed by Bioanalyzer (Agilent).
(§3) Biotinylated microarray probe was prepared using the 3′IVT Express kit (Affymetrix) and hybridized to mouse 430A 2.0 arrays as recommended in the manufacturer's protocol. Arrays were stained, washed, and scanned using Affymetrix equipment and software. Three arrays were run for each treatment and time point, each representing the liver sample from one individual animal.
(§4) For microarray analysis, RNA from animals in each treatment group was pooled in pairs (n=3 pairs for 4 h vehicle, n=2 pairs for all other treatment groups, for a total of 13 arrays per compound study). This approach was used to improve the signal-to-noise ratio on microarrays. Biotinylated probe was prepared using the One-Cycle cDNA synthesis kit (Affymetrix) and hybridized to mouse 430A 2.0 arrays as recommended in the manufacturer's protocol. Arrays were stained, washed, and scanned using Affymetrix equipment and software.
(§5) Array quality was assessed with GeneChip Operating System and/or Command Console software (Affymetrix). CEL files were uploaded to GeneSpring 7.3.1 (Agilent) using GC-RMA baseline correction. Principal Components Analysis was used to identify and reject outlier arrays. Data are reported as fold-change compared to timepoint-matched vehicle controls from the same study. Values less than 1.0 indicate a reduction of RNA in the treated animal liver tissue.
Liver tissue was collected as described in Example 6 from DIO mice at the end of the study (4 weeks of dosing) described in Example 12. RNA isolation and microarray analysis were carried out as described in Example 6. The expression of 16 genes involved in cholesterol biosynthesis in mice treated with Compound B, Compound E, or Compound D, relative to that in the vehicle treated mice, is shown in Table 7.

ApoE deficient mice [3] = experiment: Cholesterol reduction and erythrogenesis in ApoE deficient mice, 4 weeks; type: in vivo, mouse; settings: orally 2, 20, 60 or 100 mg/kg three times a week for 4 weeks, n=8/group
Experimental: as §1
Total cholesterol and hemoglobin were measured weekly.

cynomolgus monkeys = experiment: Cholesterol levels after repeated oral administration in monkey toxicity studies; type: in vivo, cynomolgus monkey; settings: 28-Day study, daily oral dosing 1, 10 and 30 mg/kg, day 28
Experimental: During these studies monkeys were fasted prior to each blood collection. Plasma samples were then evaluated at pre-dose and at different time-points for levels of total cholesterol.

[4] = system: Cholesterol Biosynthesis Genes in the Mouse Liver; experiment: Microarray expression of cholesterol biosynthesis genes in mouse liver; type: in vivo; settings: 10 mg/kg oral
Experimental: as §2, §3
Animals were sacrificed 4 h or 8 h later. Each compound was tested in a separate animal study with separate controls. Liver tissue was harvested and stored in RNALater (Life Technologies). Total RNA was isolated with Trizol (Life Technologies) and purified with RNEasy96 (Qiagen) according to the manufacturers' protocols. RNA concentration was measured by NanoDrop (Thermo), and quality was assessed by Bioanalyzer (Agilent).
as §4, §5

[5] = system: subjects with end-stage renal disease (ESRD) receiving maintenance hemodialysis; experiment: Study 2: phase 2 study of compound A vs EPO in ESRD subjects on maintenance hemodialysis; type: in vivo, human; settings: treated for 19 weeks, FIG. 2
Experimental: Total cholesterol and lipid panels were measured by standard procedures.
Total cholesterol was measured from all subjects in Study 1 or Study 2 as part of the chemistry panel at prespecified time points.
Frozen serum samples, collected from subjects in Study 1 or Study 2, were selected for the lipid panel analysis based on the following criteria: 1) with matched baseline (D1W1) and; 2) at least one other time point. The complete lipid panel includes: total cholesterol (TC), HDL, LDL-measured, Triglycerides and VLDL (Calculated). Ratio of HDL/LDL or LDL/HDL were analyzed.
A total of n=20 subjects were selected and assayed for the complete lipid panel as described above. Subjects on this study protocol were not required to fast nor have any diet restrictions.

[6] = system: subjects with end stage renal disease (ESRD); experiment: ESRD subjects switched from epoetin alfa to Compound A or continued on epoetin alfa; type: in vivo, human
[7] = system: subjects with end stage renal disease (ESRD); experiment: as above; type: in vivo, human; settings: six weeks
Experimental: Mean total cholesterol change for the Compound A-treated subjects (all cohorts) was a decrease of 15 mg/dL compared to an increase of 18 mg/dL for the epoetin alfa treated subjects.

[8] = baseline, Compound A 3 cohorts n=74, Epoetin alfa n=22

## O=C(O)CNC(=O)c1nc(Cl)c2ccccc2c1O [Compound B, [(1-Chloro-4-hydroxy-isoquinoline-3-carbonyl)-amino]-acetic acid]
ApoE deficient mice [1]
  total cholesterol levels at the end of the study compared to baseline: trend towards lower total cholesterol
[2]
  3-hydroxy-3-methylglutaryl-Coenzyme A reductase (Hmgcr) expression: 0.20
  3-hydroxy-3-methylglutaryl-Coenzyme A synthase 1 (Hmgcs1) expression: 0.15
  7-dehydrocholesterol reductase (Dhcr7) expression: 0.43
  NAD(P) dependent steroid dehydrogenase-like (Nsdhl) expression: 0.34
  acetyl-Coenzyme A acetyltransferase 2 (Acat2) expression: 0.43
  cytochrome P450, family 51 (Cyp51) expression: 0.18
  farnesyl diphosphate farnesyl transferase 1 (Fdft1) expression: 0.30
  farnesyl diphosphate synthetase (Fdps) expression: 0.26
  isopentenyl-diphosphate delta isomerase (Idi1) expression: 0.23
  lanosterol synthase (Lss) expression: 0.38
  mevalonate (diphospho) decarboxylase (Mvd) expression: 0.20
  mevalonate kinase (Mvk) expression: 0.54
  phosphomevalonate kinase (Pmvk) expression: 0.48
  squalene epoxidase (Sqle) expression: 0.21
  sterol-C4-methyl oxidase-like (Sc4mol) expression: 0.13
  sterol-C5-desaturase (fungal ERG3, delta-5-desaturase) homolog (S. cerevisae) (Sc5d) expression: 0.30

## COc1ccc(Oc2ccc3c(O)c(C(=O)NCC(=O)O)ncc3c2)cc1 [Compound D, {[4-Hydroxy-7-(4-methoxy-phenoxy)-isoquinoline-3-carbonyl]-amino}-acetic acid]
ApoE deficient mice [3]
  hemoglobin compared to vehicle-treated: did not significantly increase hemoglobin at any of the tested doses; also recorded: did not show a significant increase in hemoglobin at any of the doses tested
  total cholesterol (% change from baseline) compared to vehicle-treated: lower total cholesterol levels; also recorded: significant percent change in total cholesterol from baseline for the 20 mg/kg, 60 mg/kg, and 100 mg/kg doses
Cynomolgus monkeys
  total cholesterol levels: dose-dependent decrease in cholesterol levels
Cynomolgus monkeys; listed as compound D
  total cholesterol levels: dose dependent decrease in total cholesterol
ApoE deficient mice [1]
  total cholesterol levels at the end of the study compared to baseline: significantly decreased cholesterol levels
[2]
  3-hydroxy-3-methylglutaryl-Coenzyme A reductase (Hmgcr) expression: 0.47
  3-hydroxy-3-methylglutaryl-Coenzyme A synthase 1 (Hmgcs1) expression: 0.42
  7-dehydrocholesterol reductase (Dhcr7) expression: 0.76
  NAD(P) dependent steroid dehydrogenase-like (Nsdhl) expression: 1.02
  acetyl-Coenzyme A acetyltransferase 2 (Acat2) expression: 0.72
  cytochrome P450, family 51 (Cyp51) expression: 0.55
  farnesyl diphosphate farnesyl transferase 1 (Fdft1) expression: 0.44
  farnesyl diphosphate synthetase (Fdps) expression: 0.92
  isopentenyl-diphosphate delta isomerase (Idi1) expression: 0.67
  lanosterol synthase (Lss) expression: 0.70
  mevalonate (diphospho) decarboxylase (Mvd) expression: 0.43
  mevalonate kinase (Mvk) expression: 0.77
  phosphomevalonate kinase (Pmvk) expression: 1.14
  squalene epoxidase (Sqle) expression: 0.89
  sterol-C4-methyl oxidase-like (Sc4mol) expression: 0.38
  sterol-C5-desaturase (fungal ERG3, delta-5-desaturase) homolog (S. cerevisae) (Sc5d) expression: 0.42

## N#Cc1nc(C(=O)NCC(=O)O)c(O)c2c(Oc3ccccc3)cccc12 [Compound E, [(1-Cyano-4-hydroxy-5-phenoxy-isoquinoline-3-carbonyl)-amino]-acetic acid]
[2]
  3-hydroxy-3-methylglutaryl-Coenzyme A reductase (Hmgcr) expression: 0.36
  3-hydroxy-3-methylglutaryl-Coenzyme A synthase 1 (Hmgcs1) expression: 0.33
  7-dehydrocholesterol reductase (Dhcr7) expression: 0.52
  NAD(P) dependent steroid dehydrogenase-like (Nsdhl) expression: 0.77
  acetyl-Coenzyme A acetyltransferase 2 (Acat2) expression: 0.69
  cytochrome P450, family 51 (Cyp51) expression: 0.26
  farnesyl diphosphate farnesyl transferase 1 (Fdft1) expression: 0.40
  farnesyl diphosphate synthetase (Fdps) expression: 0.57
  isopentenyl-diphosphate delta isomerase (Idi1) expression: 0.42
  lanosterol synthase (Lss) expression: 0.45
  mevalonate (diphospho) decarboxylase (Mvd) expression: 0.34
  mevalonate kinase (Mvk) expression: 0.58
  phosphomevalonate kinase (Pmvk) expression: 0.74
  squalene epoxidase (Sqle) expression: 0.52
  sterol-C4-methyl oxidase-like (Sc4mol) expression: 0.27
  sterol-C5-desaturase (fungal ERG3, delta-5-desaturase) homolog (S. cerevisae) (Sc5d) expression: 0.34

## COc1ccc(Cn2cc(Br)c3c(O)c(C(=O)NCC(=O)O)nc(C#N)c32)cc1 [Compound K, {[3-Bromo-7-cyano-4-hydroxy-1-(4-methoxy-benzyl)-1H-pyrrolo[2,3-c]pyridine-5-carbonyl]-amino}-acetic acid]
[4]; 4 h
  3-hydroxy-3-methylglutaryl-Coenzyme A reductase (Hmgcr) RNA expression: 0.40 fold-change
  3-hydroxy-3-methylglutaryl-Coenzyme A synthase 1 (Hmgcs1) RNA expression: 0.74 fold-change
  7-dehydrocholesterol reductase (Dhcr7) RNA expression: 1.13 fold-change
  NAD(P) dependent steroid dehydrogenase-like (Nsdhl) RNA expression: 1.05 fold-change
  acetyl-Coenzyme A acetyltransferase 2 (Acat2) RNA expression: 0.94 fold-change
  cytochrome P450, family 51 (Cyp51) RNA expression: 0.81 fold-change
  farnesyl diphosphate farnesyl transferase 1 (Fdft1) RNA expression: 0.78 fold-change
  farnesyl diphosphate synthetase (Fdps) RNA expression: 1.01 fold-change
  isopentenyl-diphosphate delta isomerase (Idi1) RNA expression: 0.88 fold-change
  lanosterol synthase (Lss) RNA expression: 0.88 fold-change
  mevalonate (diphospho) decarboxylase (Mvd) RNA expression: 0.68 fold-change
  mevalonate kinase (Mvk) RNA expression: 0.92 fold-change
  phosphomevalonate kinase (Pmvk) RNA expression: 0.88 fold-change
  squalene epoxidase (Sqle) RNA expression: 1.46 fold-change
  sterol-C4-methyl oxidase-like (Sc4mol) RNA expression: 0.65 fold-change
  sterol-C5-desaturase (fungal ERG3, delta-5-desaturase) homolog (S. cerevisae) (Sc5d) RNA expression: 0.92 fold-change
[4]; 8 h
  3-hydroxy-3-methylglutaryl-Coenzyme A reductase (Hmgcr) RNA expression: 0.11 fold-change
  3-hydroxy-3-methylglutaryl-Coenzyme A synthase 1 (Hmgcs1) RNA expression: 0.30 fold-change
  7-dehydrocholesterol reductase (Dhcr7) RNA expression: 0.61 fold-change
  NAD(P) dependent steroid dehydrogenase-like (Nsdhl) RNA expression: 0.56 fold-change
  acetyl-Coenzyme A acetyltransferase 2 (Acat2) RNA expression: 0.63 fold-change
  cytochrome P450, family 51 (Cyp51) RNA expression: 0.32 fold-change
  farnesyl diphosphate farnesyl transferase 1 (Fdft1) RNA expression: 0.39 fold-change
  farnesyl diphosphate synthetase (Fdps) RNA expression: 0.37 fold-change
  isopentenyl-diphosphate delta isomerase (Idi1) RNA expression: 0.34 fold-change
  lanosterol synthase (Lss) RNA expression: 0.38 fold-change
  mevalonate (diphospho) decarboxylase (Mvd) RNA expression: 0.20 fold-change
  mevalonate kinase (Mvk) RNA expression: 0.49 fold-change
  phosphomevalonate kinase (Pmvk) RNA expression: 0.96 fold-change
  squalene epoxidase (Sqle) RNA expression: 0.39 fold-change
  sterol-C4-methyl oxidase-like (Sc4mol) RNA expression: 0.21 fold-change
  sterol-C5-desaturase (fungal ERG3, delta-5-desaturase) homolog (S. cerevisae) (Sc5d) RNA expression: 0.24 fold-change

## Epoetin alfa [reference compound]
[5]
  change in total cholesterol from baseline over time: No reduction of total cholesterol
[6]; Mean (±SD), six weeks, Compound A orally three times a week (n=74) or continued epoetin alfa (n=22)
  LDL cholesterol change: +5 (14) mg/dL
[6]; [8]
  Mean BL LDL Cholesterol: 90.75 mg/dL
  Mean BL Total Cholesterol: 158.41 mg/dL
[6]; both groups stratified by BL total cholesterol ≦200 or >200 mg/dL, FIG. 16
  mean total cholesterol over the course of treatment: increase
[6]; six weeks
  HDL-C: did not change significantly
  Mean change in LDL-C, increase: 5 mg/dL
[6]; subjects with the higher BL total cholesterol (n=2), FIG. 17
  mean LDL-C over the course of treatment: slight decrease
[6]; subjects with the lower BL total cholesterol (n=20)
  mean LDL-C over the course of treatment: increase
[7]; Mean (±SD), Compound A orally three times a week (n=74) or continued epoetin alfa (n=22)
  Total Cholesterol change: +18 (22) mg/dL
[7]
  Mean total cholesterol change, increase: 18 mg/dL
